# Reference: patent publication US20230242544A1, “QUINAZOLINE COMPOUNDS, PREPARATION METHODS AND USES THEREOF” (INVENTISBIO CO., LTD., priority 2020, published 2023)
# Assays:
# Ba/F3_KRAS^G12D cells = Ba/F3_KRAS^G12D cells (Homo sapiens, UniProt P01116, G12D, cells depend on it); assay: Ba/F3 KRAS G12D cell proliferation assay (CellTiter-Glo); type: cell-based; conditions: treated for 3 days, cell-titer Glo, cell growth inhibition, read-out: BaF3_KRAS^G12D IC50
# Procedure: Ba/F3_KRAS^G12D cells (KYinno, China) were generated by transducing Ba/F3 parental cells with the recombinant KRAS^G12D lentivirus and followed by 1 ug/mL of puromycin selection and IL3 depletion. […] Cells were seeded at a density of 5×10^3 per well into 96-well plate and incubated overnight. Serial diluted compounds were added to each well. Cells were treated with the compounds for 3 days, after which cell-titer Glo reagent (Promega #G7572) was used to assess cell proliferation. The luminescence signal was then collected on Tecan Spark plate reader. […] Cell growth inhibition of IC50 is calculated with the equation of Y=Bottom+(Top−Bottom)/(1+10^((Log IC50−X)*Hill Slope))
# [1] = target: recombinant human KRAS^G12D protein (Homo sapiens, UniProt P01116, G12D); assay: Temperature-dependent Fluorescence (TdF) KRAS G12D protein binding assay; conditions: 6 μM KRAS^G12D protein, 10 μM compound, Sypro Orange; Kd calculated from the fluorescent shift
# Procedure: The Temperature-dependent Fluorescence (TdF) assay was used to analyze binding affinity of compound to recombinant human KRAS^G12D protein. The TdF assay was conducted in the 96-well-based real-time fluorescence plate reader (ABI 7500 or Roche LightCycler 480). Fluorescent dye Sypro Orange (Sigma) was used to monitor the protein folding-unfolding transition. Protein-compound binding was gauged by the shift in the unfolding transition temperature (ΔTm) acquired with and without compound. Each reaction sample consists of 6 μM KRAS^G12D Protein, 10 μM compound, and Sypro Orange dye (in 1% DMSO) in 20 μL reaction buffer (25 mM HEPES pH 7.5, 150 mM NaCl, 10 mM MgCl2). […] Binding affinity (Kd value) was calculated based on the degree of fluorescent shift of the protein with and without compound.
# Sequence of recombinant human KRAS^G12D protein (P01116 1-188 isoform P01116-2 G12D): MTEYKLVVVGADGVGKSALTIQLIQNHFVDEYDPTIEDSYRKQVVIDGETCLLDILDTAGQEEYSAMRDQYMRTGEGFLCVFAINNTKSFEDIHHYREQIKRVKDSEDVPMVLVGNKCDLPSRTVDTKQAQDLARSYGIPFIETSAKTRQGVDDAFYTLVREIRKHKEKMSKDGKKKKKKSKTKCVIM
# Sequence of Ba/F3_KRAS^G12D cells (P01116 whole entry G12D): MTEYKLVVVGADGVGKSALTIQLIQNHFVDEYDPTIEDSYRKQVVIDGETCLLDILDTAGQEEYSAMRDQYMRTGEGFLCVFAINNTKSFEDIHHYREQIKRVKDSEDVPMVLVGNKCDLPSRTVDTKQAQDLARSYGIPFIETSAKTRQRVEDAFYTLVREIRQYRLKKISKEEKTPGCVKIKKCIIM
Compound,GI50 (Ba/F3_KRAS^G12D cells) [nM],Kd [1] [nM]
"Oc1cc(-c2c(Cl)cc3c(N4CC5CCC(C4)N5)nc(OC[C@]45CCCN4C[C@@H](F)C5)nc3c2F)c2c(Cl)cccc2c1 (single isomer, unassigned) [Compound 102]",500 to 5000,> 5000
"Oc1cc(-c2c(Cl)cc3c(N4CC5CCC(C4)N5)nc(OC[C@@]45CCCN4C[C@H](F)C5)nc3c2F)c2c(Cl)cccc2c1 (single isomer, unassigned) [Compound 104]",500 to 5000,> 5000
"Oc1cc(-c2c(Cl)cc3c(N4CC5CCC(C4)N5)nc(OC[C@]45CCCN4C[C@@H](F)C5)nc3c2F)c2ccccc2c1 (single isomer, unassigned) [Compound 105]",500 to 5000,> 5000
CN(C)CCCOc1nc(N2CC3CCC(C2)N3)c2cc(Cl)c(-c3c(N)cccc3F)c(F)c2n1 [Compound 9],> 5000,–
CN1CCC[C@H]1COc1nc(NC2CNC2)c2cc(Cl)c(-c3cc(O)cc4cccc(Cl)c34)c(F)c2n1 [Compound 15],–,> 5000
CN1CC(F)(F)CC1COc1nc(N2CC3CCC(C2)N3)c2cc(Cl)c(-c3cc(O)cc4ccccc34)c(F)c2n1 (centres unmarked) [Compound 34],500 to 5000,–
CN1CCO[C@@H](COc2nc(N3CC4CCC(C3)N4)c3cc(Cl)c(-c4cc(O)cc5ccccc45)c(F)c3n2)C1 [Compound 37],500 to 5000,–
CN1CCC(Oc2nc(N3CC4CCC(C3)N4)c3cc(Cl)c(-c4cc(O)cc5ccccc45)c(F)c3n2)CC1 [Compound 38],500 to 5000,–
Oc1cccc(F)c1-c1c(Cl)cc2c(N3CC4CCC(C3)N4)nc(OCC34CCCN3CCC4)nc2c1F [Compound 63],–,500 to 5000
Oc1cc(-c2c(Cl)cc3c(N4CC5CCC(C4)N5)nc(OC[C@@]45CCCN4C[C@H](F)C5)nc3c2F)c2ccccc2c1 [Compound 68],–,< 500
Oc1cc(-c2c(Cl)cc3c(N4CC5CCC(C4)N5)nc(OCC45CCCN4CCC5)nc3c2F)c2c(Cl)c(F)ccc2c1 [Compound 71],–,< 500
N#Cc1cc2c(N3CC4CCC(C3)N4)nc(OCC34CCCN3CCC4)nc2c(F)c1-c1cc(O)cc2ccccc12 [Compound 73],–,< 500
CC(C)N1CCC(Oc2nc(N3CC4CCC(C3)N4)c3cc(Cl)c(-c4cc(O)cc5ccccc45)c(F)c3n2)C1 (centres unmarked) [Compound 84],–,> 5000
N#Cc1cc2c(N3CC4CCC(C3)N4)nc(OC[C@@]34CCCN3C[C@H](F)C4)nc2c(F)c1-c1c(O)cccc1F [Compound 90],> 5000,–
N#Cc1cc2c(N3CC4CCC(C3)N4)nc(OC[C@@]34CCCN3C[C@H](F)C4)nc2c(F)c1-c1ccc(F)c2sc(N)nc12 [Compound 112],–,< 500
Cc1cc(N)nc(-c2c(SC(F)(F)F)cc3c(N4CCNC[C@@H]4C)nc(OC[C@@H]4CCCN4C)nc3c2F)c1C(F)(F)F [Compound 136],–,> 5000
COc1nc(N2CC3CCC(C2)N3)c2cc(Cl)c(-c3ccc(F)c4sc(N)nc34)c(F)c2n1 [Compound 141],–,500 to 5000
CCOc1cc2c(N3CC4CCC(C3)N4)nc(OC[C@@]34CCCN3C[C@H](F)C4)nc2c(F)c1-c1cc(O)cc2cccc(CC)c12 [Compound 157],500 to 5000,–
CCOc1cc2c(N3CC4CCC(C3)N4)nc(OC[C@@]34CCCN3C[C@H](F)C4)nc2c(F)c1-c1cc(O)cc2ccc(F)c(CC)c12 [Compound 159],500 to 5000,–
CCc1c(F)ccc2cc(O)cc(-c3c(OC)cc4c(N5CC6CCC(C5)N6)nc(OC[C@@]56CCCN5C[C@H](F)C6)nc4c3F)c12 [Compound 164],< 500,–
C#Cc1c(F)ccc2cc(O)cc(-c3cc(OC)c4c(N5CC6CCC(C5)N6)nc(OC[C@@]56CCCN5C[C@H](F)C6)nc4c3F)c12 [Compound 167],< 500,–
C#Cc1c(F)ccc2cc(O)cc(-c3cc(OC(C)C)c4c(N5CC6CCC(C5)N6)nc(OC[C@@]56CCCN5C[C@H](F)C6)nc4c3F)c12 [Compound 169],< 500,–
C#Cc1c(F)ccc2cc(O)cc(-c3ccc4c(N5CC6CCC(C5)N6)nc(OC[C@@]56CCCN5C[C@H](F)C6)nc4c3F)c12 [Compound 170],< 500,–

# Results, then the compound that gave them:
GI50 (Ba/F3_KRAS^G12D cells) [nM],Kd [1] [nM],Compound
< 500,< 500,CCc1cccc2cc(O)cc(-c3c(Cl)cc4c(N5CC6CCC(C5)N6)nc(OC[C@@]56CCCN5C[C@H](F)C6)nc4c3F)c12 (racemic) [Compound 77]
< 500,< 500,"Oc1cc(-c2c(Cl)cc3c(N4CC5CCC(C4)N5)nc(OC[C@]45CCCN4C[C@@H](F)C5)nc3c2F)c2c(Cl)cccc2c1 (single isomer, unassigned) [Compound 101]"
< 500,< 500,"Oc1cc(-c2c(Cl)cc3c(N4CC5CCC(C4)N5)nc(OC[C@@]45CCCN4C[C@H](F)C5)nc3c2F)c2c(Cl)cccc2c1 (single isomer, unassigned) [Compound 103]"
< 500,< 500,"Oc1cc(-c2c(Cl)cc3c(N4CC5CCC(C4)N5)nc(OC[C@]45CCCN4C[C@@H](F)C5)nc3c2F)c2ccccc2c1 (single isomer, unassigned) [Compound 106]"
< 500,< 500,"Oc1cc(-c2c(Cl)cc3c(N4CC5CCC(C4)N5)nc(OC[C@@]45CCCN4C[C@H](F)C5)nc3c2F)c2ccccc2c1 (single isomer, unassigned) [Compound 107]"
< 500,–,"CCc1c(F)ccc2cc(O)cc(-c3c(Cl)cc4c(N5CC6CCC(C5)N6)nc(OC[C@@]56CCCN5C[C@H](F)C6)nc4c3F)c12 (single isomer, unassigned) [Compound 147]"
< 500,–,"CCc1c(F)ccc2cc(O)cc(-c3c(Cl)cc4c(N5CC6CCC(C5)N6)nc(OC[C@@]56CCCN5C[C@H](F)C6)nc4c3F)c12 (single isomer, unassigned) [Compound 148]"
< 500,–,"C#Cc1c(F)ccc2cc(O)cc(-c3c(Cl)cc4c(N5CC6CCC(C5)N6)nc(OC[C@@]56CCCN5C[C@H](F)C6)nc4c3F)c12 (single isomer, unassigned) [Compound 155]"
< 500,–,"C#Cc1c(F)ccc2cc(O)cc(-c3c(F)cc4c(N5CC6CCC(C5)N6)nc(OC[C@@]56CCCN5C[C@H](F)C6)nc4c3F)c12 (single isomer, unassigned) [Compound 165]"
< 500,–,CCc1c(F)ccc2cc(O)cc(-c3c(C#N)cc4c(N5CC6CCC(C5)N6)nc(OC[C@@]56CCCN5C[C@H](F)C6)nc4c3F)c12 [Compound 149]
< 500,–,CCc1c(F)ccc2cc(O)cc(-c3c(C#N)cc4c(N5CC6CCC(C5)N6)nc(OC[C@@]56CCCN5C[C@H](F)C6)nc4c3F)c12 [Compound 150]
< 500,–,CCOc1cc2c(N3CC4CCC(C3)N4)nc(OC[C@@]34CCCN3C[C@H](F)C4)nc2c(F)c1-c1cc(O)cc2cccc(CC)c12 [Compound 156]
< 500,–,CCOc1cc2c(N3CC4CCC(C3)N4)nc(OC[C@@]34CCCN3C[C@H](F)C4)nc2c(F)c1-c1cc(O)cc2ccc(F)c(CC)c12 [Compound 158]
< 500,–,C#Cc1c(F)ccc2cc(O)cc(-c3c(OCC)cc4c(N5CC6CCC(C5)N6)nc(OC[C@@]56CCCN5C[C@H](F)C6)nc4c3F)c12 [Compound 160]
< 500,–,C#Cc1c(F)ccc2cc(O)cc(-c3c(OCC)cc4c(N5CC6CCC(C5)N6)nc(OC[C@@]56CCCN5C[C@H](F)C6)nc4c3F)c12 [Compound 161]
< 500,–,C#Cc1c(F)ccc2cc(O)cc(-c3c(OC)cc4c(N5CC6CCC(C5)N6)nc(OC[C@@]56CCCN5C[C@H](F)C6)nc4c3F)c12 [Compound 162]
